Literature values, collected in patent publication US20100022769A1, “NOVEL POLYNITROGENATED SYSTEMS AS ANTI-HIV AGENTS” (priority 2006, published 2010).

How the values were obtained:
[1] = target: CXCR4 (Homo sapiens, UniProt P61073); conditions: times more active than AMD3100
[2] = system: CCR5-dependent replication of HIV; conditions: virus recovered from patients who received AMD3100
[3] = development abandoned in 2001
[4] = related to its high positive charge in physiological medium
[5] = system: X4 strain of HIV; conditions: subject infected with a X4 strain of HIV

Chain of CXCR4 (P61073 whole entry): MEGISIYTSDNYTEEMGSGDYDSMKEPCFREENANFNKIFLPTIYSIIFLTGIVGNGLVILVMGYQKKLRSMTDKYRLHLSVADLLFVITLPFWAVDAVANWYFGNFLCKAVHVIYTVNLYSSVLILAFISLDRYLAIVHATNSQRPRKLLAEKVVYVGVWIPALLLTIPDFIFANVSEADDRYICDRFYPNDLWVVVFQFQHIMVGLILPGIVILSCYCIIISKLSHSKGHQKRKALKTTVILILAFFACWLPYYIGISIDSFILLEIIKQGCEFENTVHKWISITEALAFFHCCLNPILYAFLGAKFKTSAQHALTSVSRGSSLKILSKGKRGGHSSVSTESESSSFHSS

Structure (SMILES) | activity relative to AMD3100 [1] | inhibiting the in vivo CCR5-dependent replication of HIV [2] | cardiac toxicity [3] | oral bioavailability [4] | reduction of the viral load [5]
c1ccc(CNCc2ccc(CN3CCCNCCNCCCNCC3)cc2)nc1 [AMD3465] | up to 10 times | – | – | – | –
c1cc(CN2CCCNCCNCCCNCC2)ccc1CN1CCCNCCNCCCNCC1 [AMD3100] | – | not effective | possible cardiac toxicity | lack of oral bioavailability | 0.8-0.9 log 10
